Counter-ions that a name gives are not always drawn.
Key:
VEGFR2 = target: T1, VEGFR2 (Homo sapiens, UniProt P35968); test: VEGFR2 cell-based assay (ELISA, phosphor-/total VEGFR2 in transfected CHO cells); conditions: compound at 100 nM; CHO cells transfected with full length VEGFR2; FBS stimulation; read-out: % VEGFR2 kinase activity remains
T1 construct: expressed in transfected cells; host or cells: CHO cells
Description: A standard cell-based assay for VEGFR2 kinase activity can be used to test or screen the compounds of this invention and to identify VEGFR2 antagonists. In this example, ELISA kits (R&D Systems, Inc., Minneapolis, Minn. 55413, USA) were used.
The activity of VEGFR2 in cells depended on its autophosphorylation level by various factors including growth factors. In order to induce the cell to produce VEGFR2, full length of VEGFR2 sequence was cloned into PC-DNA3.1 vector, the plasmid was then transfected into CHO cells. After 48 hours, the expression of VEGFR2 in transfected CHO cells was confirmed by regular western blotting.
A compound to be tested was first dissolved in DMSO to a concentration of 10 mM and stored at −20° C. One day before the test, CHO cells transfected with full length VEGFR2 plasmid were grown in Dulbecco's Modified Eagle Medium (DMEM) without the presence of serum. On the day of the test, the compounds with various concentrations in DMSO (from 0.5 nM to 500 nM) were added into DMEM. Two hours later, 20% of FBS (Fetal Bovine Serum) was added into the medium to stimulate the production of phosphor-VEGFR2. Cell lysate from approximately 5×10^5 transfected CHO cells were reacted with anti-phosphor VEGFR2 or anti-total VEGFR2 antibody in 96-well plates, in the presence of detection antibody. The phosphor-VEGFR2 or total VEGFR2 were detected with Streptavidin-HRP(R&D Systems), followed by chemiluminescent detection. The level of VEGFR2 kinase activity was quantified as the ratio between the amount of phosphor- and that of total VEGFR2 proteins.

EphB4 = target: T2, EphB4 (Homo sapiens, UniProt P54760); test: EphB4 cell-based assay (quantitative Western blotting, PC-3 cells, Ephrin-B2 stimulated); conditions: compound at 100 nM; PC-3 human prostate cancer cells; Ephrin-B2 stimulation; read-out: % EphB4 kinase activity remains
T2 construct: EphB4 autophosphorylation in PC-3 human prostate cancer cells; host or cells: PC-3 human prostate cancer cells
T2 sequence (P54760 16-987): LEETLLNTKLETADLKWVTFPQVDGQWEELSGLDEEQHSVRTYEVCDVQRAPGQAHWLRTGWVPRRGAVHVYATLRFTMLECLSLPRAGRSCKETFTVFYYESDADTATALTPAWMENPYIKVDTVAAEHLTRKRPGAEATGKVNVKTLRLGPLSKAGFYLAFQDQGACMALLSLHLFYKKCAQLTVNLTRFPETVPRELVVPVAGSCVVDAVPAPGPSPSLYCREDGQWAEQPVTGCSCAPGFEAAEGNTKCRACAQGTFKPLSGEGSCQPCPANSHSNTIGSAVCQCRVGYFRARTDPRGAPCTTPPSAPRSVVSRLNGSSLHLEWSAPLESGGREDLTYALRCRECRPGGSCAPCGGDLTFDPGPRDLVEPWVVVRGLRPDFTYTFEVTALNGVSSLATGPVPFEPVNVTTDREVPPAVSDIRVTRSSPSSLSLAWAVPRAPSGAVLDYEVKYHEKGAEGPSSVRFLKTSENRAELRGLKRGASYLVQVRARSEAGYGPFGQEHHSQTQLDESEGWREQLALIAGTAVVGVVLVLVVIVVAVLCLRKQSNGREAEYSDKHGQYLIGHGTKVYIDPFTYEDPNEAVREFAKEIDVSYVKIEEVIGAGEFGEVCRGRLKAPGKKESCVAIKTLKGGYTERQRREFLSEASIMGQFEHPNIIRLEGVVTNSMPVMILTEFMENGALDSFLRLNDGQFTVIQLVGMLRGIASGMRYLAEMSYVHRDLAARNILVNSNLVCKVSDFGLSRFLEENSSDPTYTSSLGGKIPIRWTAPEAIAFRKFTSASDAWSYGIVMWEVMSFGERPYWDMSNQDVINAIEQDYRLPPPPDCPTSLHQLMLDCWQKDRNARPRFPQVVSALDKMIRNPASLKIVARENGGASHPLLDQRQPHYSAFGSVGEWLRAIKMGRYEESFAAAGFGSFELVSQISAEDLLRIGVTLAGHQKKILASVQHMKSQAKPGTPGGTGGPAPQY
Description: A standard image-based quantitative Western blotting assay for EphB4 kinase activity can be used to test or screen the compounds of this invention and to identify EphB4 antagonists.
The kinase activity of EphB4 in cells depends on its autophosphorylation level stimulated by the binding to its ligand Ephrin-B2. High level of EphB4 autophosphorylation in PC-3 human prostate cancer cells (ATCC, USA) induced by the application of Ephrin-B2 to the cell culture can be observed by regular Western blotting assay.
A compound to be tested was first dissolved in DMSO to a concentration of 10 mM and stored at −20° C. On the day of screening procedure, the compound in DMSO was added into DMEM medium to a final concentration of 100 nM. Two hours later, Ephrin-B2 ([…]) was added into DMEM medium to stimulate the production of phosphor-EphB4. The phosphor-EphB4 was detected based on its molecular weight and with anti-phosphor protein antibody PY-20 in cell lysate from approximately 5×10^5 PC-3 cells by Western blotting followed by imaging quantification. The relative level of EphB4 kinase activity was quantified as the ratio between the amount of phosphor-EphB4 and that of total Actin proteins.

T1 sequence (P35968 20-1356): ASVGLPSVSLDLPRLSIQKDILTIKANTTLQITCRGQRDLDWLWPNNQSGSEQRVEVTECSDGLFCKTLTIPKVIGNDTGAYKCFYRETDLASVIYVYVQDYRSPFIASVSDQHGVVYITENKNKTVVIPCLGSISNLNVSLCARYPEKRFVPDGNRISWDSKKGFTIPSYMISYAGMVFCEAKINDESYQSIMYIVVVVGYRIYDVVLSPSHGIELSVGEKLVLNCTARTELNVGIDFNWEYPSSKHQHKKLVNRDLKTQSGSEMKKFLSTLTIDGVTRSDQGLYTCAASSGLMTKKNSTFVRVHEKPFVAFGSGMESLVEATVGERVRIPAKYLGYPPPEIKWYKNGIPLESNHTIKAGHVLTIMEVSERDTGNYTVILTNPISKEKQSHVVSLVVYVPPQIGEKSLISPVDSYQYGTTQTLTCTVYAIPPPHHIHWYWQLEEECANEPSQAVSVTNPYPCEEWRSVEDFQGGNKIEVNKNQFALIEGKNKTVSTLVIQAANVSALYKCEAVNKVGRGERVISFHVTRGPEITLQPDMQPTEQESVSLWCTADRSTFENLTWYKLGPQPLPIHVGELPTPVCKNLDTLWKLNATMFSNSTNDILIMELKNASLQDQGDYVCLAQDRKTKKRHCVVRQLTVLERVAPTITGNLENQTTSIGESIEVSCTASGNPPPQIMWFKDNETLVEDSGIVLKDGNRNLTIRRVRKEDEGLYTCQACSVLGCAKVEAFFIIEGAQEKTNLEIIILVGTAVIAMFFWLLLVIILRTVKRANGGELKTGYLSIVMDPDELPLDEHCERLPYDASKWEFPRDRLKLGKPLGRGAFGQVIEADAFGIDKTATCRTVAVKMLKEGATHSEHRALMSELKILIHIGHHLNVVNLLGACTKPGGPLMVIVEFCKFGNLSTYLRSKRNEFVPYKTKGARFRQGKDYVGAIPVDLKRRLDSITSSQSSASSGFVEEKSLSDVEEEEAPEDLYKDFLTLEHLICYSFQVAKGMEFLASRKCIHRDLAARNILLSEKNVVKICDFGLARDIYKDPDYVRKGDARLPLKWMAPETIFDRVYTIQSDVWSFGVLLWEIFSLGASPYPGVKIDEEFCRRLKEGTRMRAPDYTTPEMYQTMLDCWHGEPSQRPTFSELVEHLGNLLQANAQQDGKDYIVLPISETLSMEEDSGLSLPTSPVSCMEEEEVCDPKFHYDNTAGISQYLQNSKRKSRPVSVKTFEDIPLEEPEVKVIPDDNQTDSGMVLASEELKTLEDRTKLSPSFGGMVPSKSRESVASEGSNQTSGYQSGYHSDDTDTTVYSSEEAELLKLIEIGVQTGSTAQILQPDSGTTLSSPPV

With `[2H]C(c1c[nH]c2ncccc12)N1CCc2c(NC(=O)Nc3cccc(C)c3)cccc21` (stereo not drawn) [Example 21, 1-[1-[Deuterio(1H-pyrrolo[2,3-b]pyridin-3-yl)methyl]indolin-4-yl]-3-(m-tolyl)urea] the remaining activity at 0.1 µM (VEGFR2) was less than 70% and the remaining activity at 0.1 µM (EphB4) was no less than 70%.
Compound `[2H]C(c1c[nH]c2ncccc12)n1ccc2c(NC(=O)Nc3cccc(C)c3)cccc21` (stereo not drawn) [Example 22, 1-[1-[deuterio(1H-pyrrolo[2,3-b]pyridin-3-yl)methyl]indol-4-yl]-3-(m-tolyl)urea] has a remaining activity at 0.1 µM (VEGFR2) of less than 70% and a remaining activity at 0.1 µM (EphB4) of no less than 70%.
Work on `[2H]C([2H])(c1ccnc2[nH]ccc12)N1CCc2c(NC(=O)Nc3cc(Cl)ccc3OC)cccc21` [Example 9, 1-(5-Chloro-2-methoxyphenyl)-3-[1-[dideuterio(1H-pyrrolo[2,3-b]pyridin-4-yl)methyl]indolin-4-yl]urea hydrochloride] yielded a remaining activity at 0.1 µM (VEGFR2) of less than 70% and a remaining activity at 0.1 µM (EphB4) of no less than 70%.
